System: db/db mouse
Test: Antidiabetic activity in db/db mouse (drop in glycaemia after oral administration)
Type: in vivo
Conditions: 8 weeks old, 200 mg/kg per os, blood from tail, glucometer; for Drop in glycaemia (in % of the initial value) After 1 hour: 1 hour after administration; for Drop in glycaemia (in % of the initial value) After 2 hours: 2 hours after administration
Method: The antidiabetic activity of the compounds of formula (I) orally on a type 2 diabetes animal model, the db/db mouse, was tested. Diabetic mice are used at the age of 8 weeks; they then have very high hyperglycaemia. The animals are stabilised at a minimum for one week after reception and up to the day of experimentation in an animal house at a temperature regulated at 21°-22° C. and subjected to a fixed cycle of light (from 7 a.m. to 7 p.m.) and darkness (from 7 p.m. to 7 a.m.). Their food consisted of a maintenance regime; water and food were supplied “ad libitum”. The mice are treated orally with the product to be tested (200 mg/kg per os) in suspension in a mixture of water and methyl cellulose or the vehicle (mixture of water and methyl cellulose) in the morning of the day of the experimentation. Just before the administration of the product and one and two hours after the administration of the product, a blood sample (one drop of blood) is taken following a small incision in the tail for determining glycaemia. This glycaemia is measured by means of a glucometer (Lifescan OneTouch Ultra, LifeScan, Johnson-Johnson Company) and OneTouchUltra glycaemia measurement strips.

## O=C(O)CCC(=O)c1ccc(OCCN2CCN(c3ccc(F)cc3)CC2)cc1 [Compound 5]
  Drop in glycaemia (in % of the initial value) After 1 hour: 5%
  Drop in glycaemia (in % of the initial value) After 2 hours: 23%

## O=C(O)CCC(=O)c1ccc(OCCN2CCN(c3ccccn3)CC2)cc1 [Compound 10]
  Drop in glycaemia (in % of the initial value) After 1 hour: 23%
  Drop in glycaemia (in % of the initial value) After 2 hours: 39%

## COc1cccc(N2CCN(CCOc3ccc(C(=O)CCC(=O)O)cc3)CC2)c1 [Compound 12]
  Drop in glycaemia (in % of the initial value) After 1 hour: 19%
  Drop in glycaemia (in % of the initial value) After 2 hours: 32%

## COc1ccc(N2CCN(CCOc3ccc(C(=O)CCC(=O)O)cc3)CC2)cc1 [Compound 2]
  Drop in glycaemia (in % of the initial value) After 1 hour: 7%
  Drop in glycaemia (in % of the initial value) After 2 hours: 12%

## CN(C)C(=N)N=C(N)N [Metformin, reference compound]
  Drop in glycaemia (in % of the initial value) After 1 hour: 22%
  Drop in glycaemia (in % of the initial value) After 2 hours: 27%

## O=C(O)CCC(=O)c1ccc(OCCN2CCN(c3ccccc3F)CC2)cc1 [Compound 3]
  Drop in glycaemia (in % of the initial value) After 1 hour: 23%
  Drop in glycaemia (in % of the initial value) After 2 hours: 29%

## O=C(O)CCC(=O)c1ccc(OCCN2CCN(c3cccc(F)c3)CC2)cc1 [Compound 4]
  Drop in glycaemia (in % of the initial value) After 1 hour: 9%
  Drop in glycaemia (in % of the initial value) After 2 hours: 20%
